Article PMC3150614 (Journal of medicinal chemistry, 2011)

Legend:
[1] = target: T1, Plasmodium falciparum arginase (PFA) (Plasmodium falciparum, UniProt Q8I384); type: biochemical; details: racemic mixtures
T1 sequence (Q8I384 1-411): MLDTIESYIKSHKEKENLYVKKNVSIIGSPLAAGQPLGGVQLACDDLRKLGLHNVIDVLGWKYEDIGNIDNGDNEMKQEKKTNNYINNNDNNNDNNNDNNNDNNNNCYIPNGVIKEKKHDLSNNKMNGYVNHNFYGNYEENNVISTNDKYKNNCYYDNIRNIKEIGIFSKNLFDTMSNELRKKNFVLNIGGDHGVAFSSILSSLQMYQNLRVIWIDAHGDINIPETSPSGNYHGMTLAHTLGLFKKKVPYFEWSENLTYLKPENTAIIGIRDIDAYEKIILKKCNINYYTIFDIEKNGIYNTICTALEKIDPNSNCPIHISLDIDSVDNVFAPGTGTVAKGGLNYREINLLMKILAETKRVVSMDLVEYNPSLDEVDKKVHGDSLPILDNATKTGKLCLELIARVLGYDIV

human arginase I (HAI) = target: T2, human arginase I (HAI) (Homo sapiens, UniProt P05089); assay: Surface plasmon resonance binding to immobilized HAI; details: based on Kd, racemic mixtures
T2 sequence (P05089 1-322): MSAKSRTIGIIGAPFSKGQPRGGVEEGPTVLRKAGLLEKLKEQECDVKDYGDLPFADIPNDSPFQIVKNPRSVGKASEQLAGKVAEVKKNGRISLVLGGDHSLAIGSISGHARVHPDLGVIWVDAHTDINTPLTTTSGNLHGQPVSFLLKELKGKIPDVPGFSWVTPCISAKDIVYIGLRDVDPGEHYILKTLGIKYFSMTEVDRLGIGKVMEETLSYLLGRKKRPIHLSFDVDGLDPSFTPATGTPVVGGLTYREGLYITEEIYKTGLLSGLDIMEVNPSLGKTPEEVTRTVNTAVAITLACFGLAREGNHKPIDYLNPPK

SMILES | fold weaker inhibitory potency against PFA than ABH, based on Ki [1] [fold] | fold less tight binding to HAI compared with ABH (human arginase I (HAI)) [fold]
CC(N)(CCCCB(O)O)C(=O)O (stereo not shown) [MABH, 2-Amino-6-borono-2-methylhexanoic acid] | 26 | 49
NC(CCCCB(O)O)(C(=O)O)C(F)F (stereo not shown) [FABH, 2-Amino-6-borono-2-(difluoromethyl)hexanoic acid] | 200 | 1889
